The text below walks through data of patent US8748618B2, “Inhibitors of inv(16) leukemia” (University of Virginia Patent Foundation, priority 2009, dated 2014).

Data set [1] concerns the target CBFβ-SMMHC:RD (CBFβ-SMMHC binding to the Runt domain). Put plainly: FRET assay, inhibition of CBFβ-SMMHC binding to the Runt domain. Conditions: for IC50 FRET (CBFβ-SMMHC:RD, 20 nM both): 20 nM both proteins. As to the method:
FRET assay. […] We fused the green fluorescent protein derivative Cerulean to the N-terminus of the Runt domain and the green fluorescent protein derivative Venus to the N-terminus of CBFβ-SMMHC (as well as to CBFβ (Gorczynski, Grembecka et al. 2007)). The ratio of the emission intensities at 525 nm and 474 nm, measured after excitation at 433 nm, was used as the readout in this assay. The dynamic range for the FRET assay was determined by adding a 30-fold excess of untagged CBFβ-SMMHC (or CBFβ in the case of CBFβ—Runt domain binding) to the assay and the associated change in the FRET ratio was defined as 100% inhibition.
As shown by Shoichet and co-workers (Seidler, McGovern et al. 2003), a primary source of false positives in any screen is micelle formation. […] A substantial loss of activity in the presence of detergent is a hallmark of inhibition by micelle formation and such compounds are thus identified as false positives. In addition, we are also incubating compound with protein and checking by mass spectroscopy to ensure that positive hits are not acting by covalent addition to either of the proteins.

The next data set has as its target CBFβ (Homo sapiens (Human), UniProt Q13951). Put plainly: NMR chemical shift perturbation with CBFβ. The class given is binding. Conditions: for NMR with CBFβ + 250 uM compound, CSP G 112: residue G 112; for NMR with CBFβ + 250 uM compound, CSP K 98: residue K 98; for Precipitation in the NMR sample: 250 uM compound with CBFβ. The source says:
Validation of binding of a small molecule inhibitor to its protein target is an essential step in developing potent inhibitors. This can be readily achieved using either NMR spectroscopy or X-ray crystallography. In the case of X-ray crystallography, this is achieved by co-crystallization of the protein with the ligand and determination of the structure. In the case of NMR spectroscopy, the structure of a compound-protein complex can also be determined. In addition, chemical shift perturbations of the protein NMR spectrum (typically 2D ^15N—^1H HSQC or ^13C—^1H HSQC) in the presence of compounds can both confirm binding to the target and localize the binding site on a protein (Pellecchia, Sem et al. 2002; Salvatella and Giralt 2003). The latter method is a quick and efficient method to confirm binding to the protein and to determine the binding site when appropriate labeled samples are available and the resonance assignments are known. Such data can also be used to dock the small molecule to the protein. Because the structure of CBFβ has been solved by NMR (Huang, Peng et al. 1999), resonance assignments are available and we have employed this approach as an additional screen to ensure the validity of the inhibitors we are developing and to determine the binding site (see below).

CBFβ, sequence (Q13951 1-141, species assumed): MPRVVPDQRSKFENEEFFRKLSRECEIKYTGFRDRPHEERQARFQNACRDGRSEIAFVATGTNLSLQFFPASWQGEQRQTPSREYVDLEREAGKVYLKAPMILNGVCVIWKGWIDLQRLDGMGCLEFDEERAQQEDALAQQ

For the molecule `FC(F)(F)Oc1cc2nc(-c3ccccn3)[nH]c2cc1N1CCCC1` [AI-10-97], the “IC50 FRET (CBFβ-SMMHC:RD, 20 nM both)” value in data set [1] (Table 1 monomers) is “Interference with assay”. Besides, on CBFβ, the “NMR with CBFβ + 250 uM compound, CSP G 112” value is 0.012 ppm and the “NMR with CBFβ + 250 uM compound, CSP K 98” value (shortened to “NMR … CSP K 98”) stood at 0.006 ppm. Consider `c1ccc(-c2nc3cc(N4CCOCC4)ccc3[nH]2)nc1` [AI-10-3], for which the “NMR with CBFβ + 250 uM compound, CSP G 112/K 98 (in words)” value (from here on “NMR … (in words)”) on CBFβ was “No CSP”.

Consider `COc1ccc2[nH]c(-c3ncccc3OC)nc2c1` [AI-10-53], for which, on CBFβ, the “NMR with CBFβ + 250 uM compound, CSP G 112” value was determined as 0.028 ppm and the “NMR … CSP K 98” value came out at 0.02 ppm. Regarding `FC(F)(F)Oc1cc(-c2cccnc2)c2[nH]c(-c3ccccn3)nc2c1` [AI-10-96], the “NMR … (in words)” value on CBFβ is given as “No CSP”. With `COc1ccnc(-c2nc3cc(OC)ccc3[nH]2)c1` [LD-2-101], the “NMR … (in words)” value at CBFβ is given as “No CSP”. With `c1ccc(-c2nc3cc(N4CCCCC4)ccc3[nH]2)nc1` [AI-10-82], in data set [1] (Table 1 monomers), the “IC50 FRET (CBFβ-SMMHC:RD, 20 nM both)” value is “Interference with assay”. At CBFβ, the “NMR with CBFβ + 250 uM compound, CSP G 112” value is 0.032 ppm and the “NMR … CSP K 98” value worked out at 0.016 ppm. Take `Oc1ccc2[nH]c(-c3ccccn3)nc2c1` [AI-10-61]: the “NMR … (in words)” value on CBFβ was “No CSP”. `FC(F)(F)Oc1ccc2[nH]c(-c3ncccc3C(F)(F)F)nc2c1` [AI-10-64]: in data set [1], the Δ500 entry is recorded as “Δ500 = 50%”. As for `COc1ccc(-c2nc3cc(OC)ccc3[nH]2)c(O)c1` [LD-1-73], the Δ110 entry in data set [1] is “Δ110 = 30%”. As for `c1ccc(-c2nc3cc(-n4ccnc4)ccc3[nH]2)nc1` [AI-10-88], the “NMR … (in words)” value on CBFβ is given as “No CSP”.

Take `COc1ccc2[nH]c(-c3cccc(C)n3)nc2c1` [LD-2-89]: the Δ333 result in data set [1] is “Δ333 = 17%”.

On to `CSc1ccc2[nH]c(-c3ccccn3)nc2c1` [AI-10-35], for which, at CBFβ, the “NMR with CBFβ + 250 uM compound, CSP G 112” value was 0.037 ppm and the “NMR … CSP K 98” value stood at 0.027 ppm. Regarding `NC(=O)c1ccc2[nH]c(-c3ccccn3)nc2c1` [AI-10-70], the Δ500 result in data set [1] is “Δ500 = 61%”.

Consider `CN(C)c1ccc2[nH]c(-c3ccc(OCCOCCOc4ccc(-c5nc6cc(N(C)C)ccc6[nH]5)nc4)cn3)nc2c1` [AI-10-21], for which the “IC50 FRET (CBFβ-SMMHC:RD, 20 nM both)” value in data set [1] (Table 2 dimers) is given as “Interference with assay”. For `FC(F)(F)c1cccc2[nH]c(-c3ccccn3)nc12` [AI-4-47], the “IC50 FRET (CBFβ-SMMHC:RD, 20 nM both)” value in data set [1] (Table 1 monomers) is reported as “Interference with assay”.

In the case of `Cc1cccnc1-c1nc2cc(OC(F)(F)F)ccc2[nH]1` [AI-10-63], the Δ500 result in data set [1] is on record as “Δ500 = 61%”. On to `Fc1ccc2[nH]c(-c3ccccn3)nc2c1` [LD-1-31], for which, on CBFβ, the “NMR … (in words)” value is on record as “No CSP” and the “Precipitation in the NMR sample” value is listed as “Strong precipitation”. On to `c1cc(-c2nc3cc(N4CCCC4)ccc3[nH]2)ncc1OCCOCCOc1ccc(-c2nc3cc(N4CCCC4)ccc3[nH]2)nc1` [AI-10-98], for which the “IC50 FRET (CBFβ-SMMHC:RD, 20 nM both)” value in data set [1] (Table 2 dimers) was “Interference with assay”. Take `O=C(O)c1ccc2[nH]c(-c3ccccn3)nc2c1` [AI-10-57]: the “NMR … (in words)” value at CBFβ is “No CSP”. Consider `COc1ccc(-c2nc3cc(N4CCCC4)ccc3[nH]2)nc1` [AI-10-101], for which the “IC50 FRET (CBFβ-SMMHC:RD, 20 nM both)” value in data set [1] (Table 1 monomers) is “Interference with assay”. Regarding `COc1c(F)cc2[nH]c(-c3ccccn3)nc2c1F` [LD-1-39], the “NMR … (in words)” value on CBFβ was “No CSP”.

For `COc1ccc2[nH]c(-c3ncccc3C(F)(F)F)nc2c1` [AI-10-69], the Δ167 result in data set [1] was “Δ167 = 18%”.

In the case of `FC(F)(F)Oc1ccc2[nH]c(-c3ccccn3)nc2c1` [AI-10-47], at CBFβ, the “NMR … (in words)” value was “No CSP” and the “Precipitation in the NMR sample” value is “some precipitation”. `CC(C)Oc1ccc2[nH]c(-c3ccccn3)nc2c1` [AI-4-70]: the “NMR … (in words)” value on CBFβ was “No CSP”. Regarding `COc1ccc(-c2nc3cc(OC)ccc3[nH]2)nc1` [AI-4-61], at CBFβ, the “NMR with CBFβ + 250 uM compound, CSP G 112” value is reported as 0.015 ppm and the “NMR … CSP K 98” value was determined as 0.013 ppm. For `Cc1ccc2[nH]c(-c3ccccn3)nc2c1C` [LD-1-23], on CBFβ, the “NMR … (in words)” value was “No CSP” and the “Precipitation in the NMR sample” value is on record as “some precipitation”.
